From patent publication US9187467B2, “2-phenyl benzothiazole linked imidazole compounds as potential anticancer agents and process for the preparation thereof” (Council of Scientific and Industrial Research, priority 2012, dated 2015)
Like-named read-outs stand apart in the source and are kept apart here.

Experiments:
Type in all cases: cell-based, human
[1] = system: A549/ATCC; assay: SRB anticancer assay, non-small lung; parameters: Log10GI50: unit not given here
[2] = system: NCI-H226; assay: SRB anticancer assay, non-small lung; conditions: Homo sapiens, NCI-H226, 48 h
[3] = system: NCI-H522; assay: SRB anticancer assay, non-small lung; parameters: Log10GI50: unit not given here
[4] = system: HT29; assay: SRB anticancer assay, colon; conditions: Homo sapiens, HT-29; HT29, 48 h
[5] = system: SF-539; assay: SRB anticancer assay, CNS; parameters: Log10GI50: unit not given here
[6] = system: SNB-19; assay: SRB anticancer assay, CNS; parameters: Log10GI50: unit not given here
[7] = system: U251; assay: SRB anticancer assay, CNS; parameters: Log10GI50: unit not given here
[8] = system: OVCAR-4; assay: SRB anticancer assay, ovarian; conditions: Homo sapiens, OVCAR-4, 48 h
[9] = system: OVCAR-8; assay: SRB anticancer assay, ovarian; parameters: Log10GI50: unit not given here
[10] = system: NCI/ADR-RES; assay: SRB anticancer assay, ovarian; parameters: Log10GI50: unit not given here; conditions: for Log10GI50: present compounds
[11] = system: SK-OV-3; assay: SRB anticancer assay, ovarian; conditions: Homo sapiens, SK-OV-3, 48 h
[12] = system: ACHN; assay: SRB anticancer assay, renal; parameters: Log10GI50: unit not given here
[13] = system: DU-145; assay: SRB anticancer assay, prostate; parameters: Log10GI50: unit not given here
[14] = system: MDA-MB-231/ATCC; assay: SRB anticancer assay, breast; parameters: Log10GI50: unit not given here; conditions: for GI50: Homo sapiens, MDA-MB-231, 48 h, 48 h, read-out: GI50
[15] = system: MDA-MB-468; assay: SRB anticancer assay, breast; parameters: unit not given here; conditions: present compounds
[16] = system: UACC-257; assay: SRB anticancer assay, melanoma
[17] = system: Breast cancer cell lines; assay: SRB anticancer assay, panel result
Procedure: (§1) The compounds were evaluated for anticancer activity against sixty human cancer cells derived from nine cancer types (leukemia cell line, non-small-cell lung cell line, colon cell line, CNS cell line, melanoma cell line, ovarian cell line, prostate cell line, renal cancer cell line and breast cancer cell line) as shown in Table 1. For each compound, dose response curves for each cell line were measured at a minimum of five concentrations at 10 fold dilutions. A protocol of 48 h continuous drug exposure was used and a sulforhodamine B (SRB) protein assay was used to estimate cell viability or growth.

[18] = system: CNS cancer cell lines; assay: SRB anticancer assay, panel result
Procedure: as §1

[19] = system: Colon cancer cell lines; assay: SRB anticancer assay, panel result
Procedure: as §1

[20] = system: Leukemia cancer cell lines; assay: SRB anticancer assay, panel result
Procedure: as §1

[21] = system: Melanoma cancer cell lines; assay: SRB anticancer assay, panel result
Procedure: as §1

[22] = system: Non-small cell lung cancer cell lines; assay: SRB anticancer assay, panel result
Procedure: as §1

[23] = system: Ovarian cancer cell lines; assay: SRB anticancer assay, panel result
Procedure: as §1

[24] = system: Prostate cancer cell lines; assay: SRB anticancer assay, panel result
Procedure: as §1

[25] = system: Renal cancer cell lines; assay: SRB anticancer assay, panel result
Procedure: as §1

COc1cc2nc(-c3ccc(-n4cncc4-c4ccc(N)cc4)cc3)sc2c(OC)c1OC [Compound 7h, 4-(1-(4-(5,6,7-Trimethoxybenzo[d]thiazol-2-yl)phenyl)-1H-imidazol-5-yl)benzenamine]
GI50 ([1]; Homo sapiens, 48 h): 3.14 µM | Log10GI50 ([1]; present compounds): −5.50 | GI50 [2]: 4.73 µM | GI50 ([3]; Homo sapiens, NCI-H522, 48 h): 2.74 µM | Log10GI50 ([3]; NCI-H522, present compounds): −5.56 | GI50 [4]: 2.79 µM | GI50 ([5]; Homo sapiens, SF-539, 48 h): 7.14 µM | Log10GI50 ([5]; SF-539, present compounds): −5.15 | GI50 ([6]; Homo sapiens, SNB-19, 48 h): 12.3 µM | Log10GI50 ([6]; SNB-19, present compounds): −4.91 | GI50 ([7]; Homo sapiens, U-251, U251, 48 h): 3.84 µM | Log10GI50 ([7]; U251, present compounds): −5.42 | GI50 [8]: 3.6 µM | GI50 ([9]; Homo sapiens, OVCAR-8, 48 h): 4.23 µM | Log10GI50 ([9]; OVCAR-8, present compounds): −5.37 | GI50 ([10]; Homo sapiens, NCI/ADR-RES, 48 h): 1.61 µM | Log10GI50 ([10]; NCI/ADR-RES (row head NCI/ADR-)): −5.79 | Log10GI50 ([10]; listed as head printed RES (second line of NCI/ADR-RES)): −4.93 | GI50 [11]: 11.7 µM | GI50 ([12]; Homo sapiens, 48 h): 8.56 µM | Log10GI50 ([12]; present compounds): −5.07 | Log10GI50 ([13]; DU-145, present compounds): −5.04 | GI50 ([13]; Homo sapiens, DU-145, 48 h): 7.25 µM | GI50 ([14]; MDA-MB-231/ATCC (row head MDA-MB-)): 3.65 µM | GI50 ([14]; row head printed 231/ATCC (second line of MDA-MB-231/ATCC)): 5.36 µM | Log10GI50 ([14]; MDA-MB-231/ATCC, present compounds): −5.44 | Log10GI50 [15]: −5.74 | GI50 ([16]; Homo sapiens, UACC-257, 48 h): 6.4 µM | Log10GI50 ([16]; UACC-257, present compounds): −5.19 log10(M) | mean graph midpoint value (MG_MID) of log10 TGI ([17]; Breast panel, total inhibition of net cell growth): −4.47 | CC50 ([17]; Homo sapiens, Breast panel, 50% net cell death, read-out: mean graph midpoint value (MG_MID) of Log10 LC50 (converted)): > 100 µM | GI50 ([17]; Homo sapiens, Breast panel, read-out: mean graph midpoint value (MG_MID) of Log10 GI50 (converted)): 2.82 µM | GI50 ([17]; Homo sapiens, six breast cancer cell lines, exposure at least 48 h, read-out: GI50, range over the panel): 1.59 to 5.36 µM | mean graph midpoint value (MG_MID) of log10 TGI ([18]; CNS panel, total inhibition of net cell growth): −4.51 | CC50 ([18]; Homo sapiens, CNS panel, 50% net cell death, read-out: mean graph midpoint value (MG_MID) of Log10 LC50 (converted)): 66.1 µM | GI50 ([18]; Homo sapiens, CNS panel, read-out: mean graph midpoint value (MG_MID) of Log10 GI50 (converted)): 5.75 µM | GI50 ([18]; Homo sapiens, six CNS cancer cell lines, exposure at least 48 h, read-out: GI50, range over the panel): 1.53 to 12.3 µM | mean graph midpoint value (MG_MID) of log10 TGI ([19]; Colon panel, total inhibition of net cell growth): >−4.0 | LC50 ([19]; Homo sapiens, Colon panel, 50% net cell death, read-out: mean graph midpoint value (MG_MID) of Log10 LC50 (converted)): > 100 µM | GI50 ([19]; Homo sapiens, Colon panel, read-out: mean graph midpoint value (MG_MID) of Log10 GI50 (converted)): 3.31 µM | GI50 ([19]; Homo sapiens, seven colon cancer cell lines, exposure at least 48 h, read-out: GI50, range over the panel): 2.79 to 3.81 µM | LC50 ([20]; Homo sapiens, Leukemia panel, 50% net cell death, read-out: mean graph midpoint value (MG_MID) of Log10 LC50 (converted)): > 100 µM | GI50 ([20]; Homo sapiens, Leukemia panel, read-out: mean graph midpoint value (MG_MID) of Log10 GI50 (converted)): 1.2 µM | GI50 ([20]; Homo sapiens, six leukemia cancer cell lines, exposure at least 48 h, read-out: GI50, range over the panel): 0.989 to 1.4 µM | mean graph midpoint value (MG_MID) of log10 TGI ([20]; Leukemia panel, total inhibition of net cell growth): >−4.0 | LC50 ([21]; Homo sapiens, Melanoma panel, 50% net cell death, read-out: mean graph midpoint value (MG_MID) of Log10 LC50 (converted)): 97.7 µM | GI50 ([21]; Homo sapiens, Melanoma panel, read-out: mean graph midpoint value (MG_MID) of Log10 GI50 (converted)): 4.79 µM | GI50 ([21]; Homo sapiens, nine melanoma cancer cell lines, exposure at least 48 h, read-out: GI50, range over the panel): 0.71 to 6.4 µM | mean graph midpoint value (MG_MID) of log10 TGI ([21]; Melanoma panel, total inhibition of net cell growth): −4.13 | LC50 ([22]; Homo sapiens, Non-small cell lung panel, 50% net cell death, read-out: mean graph midpoint value (MG_MID) of Log10 LC50 (converted)): 93.3 µM | GI50 ([22]; Homo sapiens, Non-small cell lung panel, read-out: mean graph midpoint value (MG_MID) of Log10 GI50 (converted)): 2.57 µM | GI50 ([22]; Homo sapiens, nine Non-small cell lung cancer cell lines, exposure at least 48 h, read-out: GI50, range over the panel): 0.446 to 5.13 µM | mean graph midpoint value (MG_MID) of log10 TGI ([22]; Non-small cell lung panel, total inhibition of net cell growth): −4.54 | LC50 ([23]; Homo sapiens, Ovarian panel, 50% net cell death, read-out: mean graph midpoint value (MG_MID) of Log10 LC50 (converted)): 89.1 µM | GI50 ([23]; Homo sapiens, Ovarian panel, read-out: mean graph midpoint value (MG_MID) of Log10 GI50 (converted)): 5.01 µM | GI50 ([23]; Homo sapiens, seven ovarian cancer cell lines, exposure at least 48 h, read-out: GI50, range over the panel): 1.61 to 34.3 µM | mean graph midpoint value (MG_MID) of log10 TGI ([23]; Ovarian panel, total inhibition of net cell growth): −4.56 | LC50 ([24]; Homo sapiens, Prostate panel, 50% net cell death, read-out: mean graph midpoint value (MG_MID) of Log10 LC50 (converted)): > 100 µM | GI50 ([24]; Homo sapiens, Prostate panel, read-out: mean graph midpoint value (MG_MID) of Log10 GI50 (converted)): 4.68 µM | GI50 ([24]; Homo sapiens, two prostate cancer cell lines (PC-3, DU-145), exposure at least 48 h, read-out: GI50, range over the panel): 3.02 to 7.25 µM | mean graph midpoint value (MG_MID) of log10 TGI ([24]; Prostate panel, total inhibition of net cell growth): −4.15 | CC50 ([25]; Homo sapiens, Renal panel, 50% net cell death, read-out: mean graph midpoint value (MG_MID) of Log10 LC50 (converted)): 95.5 µM | GI50 ([25]; Homo sapiens, Renal panel, read-out: mean graph midpoint value (MG_MID) of Log10 GI50 (converted)): 3.89 µM | GI50 ([25]; Homo sapiens, eight renal cancer cell lines, exposure at least 48 h, read-out: GI50, range over the panel): 1.41 to 8.95 µM | mean graph midpoint value (MG_MID) of log10 TGI ([25]; Renal panel, total inhibition of net cell growth): −4.38
